These results are taken from patent publication US11957656B2, “Methods of treating Prader-Willi syndrome” (The Trustees of Columbia University in the City of New York, priority 2016, dated 2024).

For one series, the system named is PCSK1 transcript. Kind of series: PCSK1 transcript levels in iPSC-derived neurons. It counts as cell-based, human. As for the experimental part:
FIGS. 6A-F are graphs showing that application of phosphodiesterase inhibitors to iPSC-derived neurons increases PCSK1 transcript levels and prohormone processing. […] FIGS. 6B-C: Roflumilast increases PCSK1 transcript levels in iPSC-derived neurons at Day 40 of differentiation (1043D3 line) at […] concentration. […] FIG. 6F: MK0952 applied at 10 μM in combination with 1 μM Forskolin increases PCSK1 transcript levels ˜2-fold in iPSC-derived neurons (1043D3 line).
Forskolin was applied to various cellular models and the results illustrate that it robustly and reliably increases PCSK1 transcript levels, PC1 protein levels, and functionally increases prohormone processing. PCSK1/Pcsk1 transcript levels increased between 2-3 fold in iPSC-derived neurons and primary mouse neurons exposed to 10 μM Forskolin (FIGS. 5A, C, D).
(§1) Cyclic AMP concentrations increased about 8.5-fold in iPSC-derived hypothalamic ARC neurons exposed to 10 μM Forskolin, supporting the inference that application of Forskolin increases PCSK1 transcript levels by raising cellular cAMP levels which in turn activate PCSK1's cAMP-response element promoter. FIG. 5A is a graph showing primary forebrain neurons were isolated from gestational day 19.5 (E19.5) embryos of wild type mice and cultured for 72 hours. Subsequently, cells were exposed to either 10 μM Forskolin or its vehicle, dimethyl sulfoxide (DMSO) for 20 hours. Pcsk1 transcript increased ˜2.5-fold in primary neurons exposed to Forskolin. FIG. 5B is a graph showing unaffected control hypothalamic arcuate-like (ARC) neurons (Hes Nkx2-1 hESC line) at day 37 (D37) of differentiation were treated with 10 μM Forskolin or vehicle for thirty minutes. Cyclic adenosine monophosphate (cAMP) levels were increased about 8.5-fold in cells exposed to Forskolin. […] Four hours of exposure yielded the maximal increase in upregulation, about 2.5-fold, of the time points tested.
However, the effect size of PDE inhibition on PCSK1 transcript levels is less than that induced by AC agonism with forskolin. […] Again, increased PCSK1 transcription due to combination treatment with Forskolin and Roflumilast also increases prohormone processing of POMC to ACTH (FIG. 6E).

Series [1] deals with PDE4. The settings on record: cited from earlier work.
The conditions of series [2]: cited from earlier work.
The next series has as its system cAMP. Nature of the series: cAMP levels in hypothalamic arcuate-like (ARC) neurons (Hes Nkx2-1 hESC line). The series is classed as cell-based, human. The settings on record: 10 μM Forskolin, thirty minutes, day 37 of differentiation. As for the experimental part: as §1, with “2.5-fold” for “˜2.5-fold”, “([…])” for “(D37)”
In general terms: Changes in cAMP serve as a functional read-out for many G protein-coupled receptors.

A further series has as its system PC1. Kind of series: PC1 protein levels in isolated islets from WT mice. The series is classed as cell-based, mouse. The settings on record: isolated islets from wild type mice, 25 μM and 50 μM Forskolin.
Series [3] is described as follows: Ratio of circulating proinsulin:insulin in wild type mice. It counts as in vivo, mouse. Particulars: single administration, ~4 hour fasted wild type mice. As for the experimental part: The first in vivo study with MK0952 administered by oral gavage while forskolin was administered intraperitoneally one time to ˜4 hour fasted wild type mice was completed. […] This difference likely reflects greater CNS penetrance of the MK0952, not the general relevance of a cyclase activator to therapy of PWS. No change in the ratio of circulating proinsulin:insulin was detected following administration MK0952 or Forskolin. Because the processing of proinsulin to insulin is already quite efficient in WT animals, it is in hindsight unlikely that it would further increase at fasting. However, these ‘baseline’ data are still valuable for assessing proinsulin to insulin processing under the setting of an intraperitoneal glucose tolerance test at […] glucose in both WT and Snord116^p−/m+ mice. Additionally, samples were collected for measurement of circulating cAMP levels, cortical proBDNF/BDNF, cerebellar Pcsk1, gastric Pcsk1, and gastric proghrelin/ghrelin, and finally pulmonary Pcsk1 transcript and cAMP levels.

The subject of series [4] is PDE4. The settings on record: read-out: IC50 (intrinsic potency, PDE4 inhibitor); cited from earlier work.
A further series deals with whole blood. Particulars: cited from earlier work.
In series [5] the test system is adenylate cyclase (AC) isoforms. The settings on record: cited from earlier work.
For series [6] the following is noted: cited from earlier work. The source holds these as a separate data set.

Like-named read-outs stand apart in the source and are kept apart here.

For `Cn1c(=O)c2[nH]cnc2n(C)c1=O` [Theophylline], the “PCSK1 transcript levels, single agent” value with PCSK1 transcript (D34 iPSC-derived hypothalamic ARC neurons (1023A line), 10 mM) is reported as “increases”.
For `O=C(Nc1c(Cl)cncc1Cl)c1ccc(OC(F)F)c(OCC2CC2)c1` [Roflumilast], the “PCSK1 transcript levels, single agent” value with PCSK1 transcript (iPSC-derived neurons Day 40 (1043D3 line), 1 mM) is reported as “increases”. Also, the PDE4 selectivity entry with PDE4 [1] is listed as “Selective”. In [2] (PDE4 inhibitors, Table 1A), the Brain penetration entry is reported as “limited”.
In the case of `C=C[C@@]1(C)CC(=O)[C@]2(O)[C@@]3(C)[C@@H](O)CCC(C)(C)[C@@H]3[C@H](O)[C@H](OC(C)=O)[C@@]2(C)O1` [Forskolin], the “maximal increase in PCSK1 upregulation” value in the series with PCSK1 transcript (iPSC-derived neurons (line 1043D3), 10 μM Forskolin, four hours) is reported as “about 2.5 fold”. The “PCSK1 transcript levels increase” value in the series with PCSK1 transcript (iPSC-derived neurons exposed to 10 μM Forskolin) is on record as 2-3 fold. The cAMP levels increase entry in the series on cAMP is on record as “about 8.5 fold”. The “PC1 protein levels increase” value in the series on PC1 is approximately 3 fold. Besides, the Brain penetration result in series [2] (adenylate cyclase activators, Table 2) was “Yes”.
Take `CC(C)C(=O)c1c(C(C)C)nn2ccccc12` [Ibudilast]: in series [2] (PDE4 inhibitors, Table 1A), the Brain penetration result is “Yes”.
As to `CC(C)Cn1c(=O)n(C)c(=O)c2[nH]cnc21` [IBMX, 3-isobutyl-1-methylxanthine], in the series with PDE4 [1], the PDE4 selectivity entry is given as “nonselective”.
Regarding `CCOc1cc([C@@H](CS(C)(=O)=O)N2C(=O)c3cccc(NC(C)=O)c3C2=O)ccc1OC` [Apremilast], in the series with PDE4 [1], the PDE4 selectivity entry is given as “Selective”. Also, the Brain penetration entry in series [2] (PDE4 inhibitors, Table 1A) is reported as “None”.
For `O=C(NC1CC1)c1cn(-c2cccc(-c3ccc([C@@H]4C[C@H]4C(=O)O)c(F)c3)c2)c2ncccc2c1=O` [MK0952], the “PCSK1 transcription, MK0952 as single agent in vitro” value with PCSK1 transcript (iPSC-derived neurons) is “only been found to increase PCSK1 transcription in combination with Forskolin”. In addition, the “ratio of circulating proinsulin:insulin” value in [3] is recorded as “No change”. The IC50 in the series with PDE4 [4] was 0.6 nM; in the series on whole blood, 555 nM. Moreover, in the series on PDE4 [1], the PDE4 selectivity entry is recorded as “selective”. Also, the Brain penetration entry in series [2] (PDE4 inhibitors, Table 1A) is “brain-penetrant and yes”.
`C=C[C@@]1(C)CC(=O)[C@]2(O)[C@@]3(C)[C@@H](O)CCC(C)(C)[C@@H]3[C@H](OC(=O)CCN(C)C)[C@H](OC(C)=O)[C@@]2(C)O1.Cl` [FD5]: the AC isoforms activated result in series [5] is recorded as “AC5 (AC5 expressed in heart,”.
In the case of `CC(=O)N[C@@H](C)c1cc(Cl)ccc1C1CCN(C(=O)[C@@H]2CN(C(C)(C)C)C[C@H]2c2ccc(F)cc2F)CC1` [MK-0493], in series [6], the “efficacy for weight loss in non-genetic obese” value was “animal models but limited”.
With `CCn1ncc2c(NC3CCOCC3)c(-c3nnc(Cc4sc(C)nc4C)o3)cnc21` [GSK356278], the PDE4 selectivity result in the series with PDE4 [1] was “Selective”. Moreover, the Brain penetration entry in [2] (PDE4 inhibitors, Table 1A) is recorded as “Good”.

What is called IC50 is the midpoint of a concentration-inhibition curve.
